Biological target: human PAD4 (Homo sapiens (Human), UniProt Q9UM07)
Assay: In Vitro PAD4 BAEE Biochemical Assay
Conditions: geometric mean of multiple experiments
Summary of the method: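 Deimination of BAEE substrate (3 mM) measured as ammonia via o-phthalaldehyde–DTT isoindole fluorescence, 405/535 nm. Tag-free bacterially expressed human PAD4 at 5 nM with 2 mM calcium chloride, pH 7.6 MOPS buffer, 30 min compound preincubation then 2 h reaction, both at 25 °C.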

[1] = human PAD4, BAEE substrate, 5 nM PAD4, 2 mM calcium chloride, 3 mM BAEE
[2] = recombinant PAD4 5 nM, 2 mM calcium chloride, 3 mM BAEE substrate

Chain of human PAD4 (Q9UM07 2-663): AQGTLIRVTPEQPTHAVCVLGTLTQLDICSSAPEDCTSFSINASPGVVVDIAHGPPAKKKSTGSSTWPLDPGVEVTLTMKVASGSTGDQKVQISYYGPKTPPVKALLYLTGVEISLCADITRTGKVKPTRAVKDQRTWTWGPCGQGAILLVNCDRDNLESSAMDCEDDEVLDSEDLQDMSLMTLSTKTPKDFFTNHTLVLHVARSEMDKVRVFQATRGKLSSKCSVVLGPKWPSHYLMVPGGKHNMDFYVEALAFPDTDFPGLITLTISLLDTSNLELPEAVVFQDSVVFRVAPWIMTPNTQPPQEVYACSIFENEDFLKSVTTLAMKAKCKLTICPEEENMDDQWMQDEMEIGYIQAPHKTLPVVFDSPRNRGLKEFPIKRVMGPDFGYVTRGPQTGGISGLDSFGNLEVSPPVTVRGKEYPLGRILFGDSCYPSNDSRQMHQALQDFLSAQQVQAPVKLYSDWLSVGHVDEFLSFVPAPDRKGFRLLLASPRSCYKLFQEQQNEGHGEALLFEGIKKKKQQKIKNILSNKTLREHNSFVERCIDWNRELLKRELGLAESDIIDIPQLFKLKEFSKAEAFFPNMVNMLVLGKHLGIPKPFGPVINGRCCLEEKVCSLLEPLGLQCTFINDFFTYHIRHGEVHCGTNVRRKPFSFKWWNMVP

Compound | IC50 [1] | IC50 [2]
COc1cc(C(=O)N2CCC[C@@H](N)C2)cc2nc(-c3cc4ccc(N(C5CCC5)S(C)(=O)=O)nc4n3CC3CC3)n(C)c12 [Example 15, (R)-N-(2-(5-(3-aminopiperidine-1-carbonyl)-7-methoxy-1-methyl-1H-benzo[d]imidazol-2-yl)-1-(cyclopropylmethyl)-1H-pyrrolo [2,3-b]pyridin-6-yl)-N-cyclobutylmethanesulfonamide] | 136 nM | –
COc1cc(C(=O)N2[C@H]3CC[C@@H]2[C@H](N)C3)cc2nc(-c3cc4ccc([C@@H](C)NC(=O)c5cnc(C)o5)cc4n3CC3CC3)n(C)c12 [Example 138, N-((R)-1-(2-(5-((1R,2R,4S)-2-amino-7-azabicyclo[2.2.1]heptane-7-carbonyl)-7-methoxy-1-methyl-1H-benzo[d]imidazol-2-yl)-1-(cyclopropylmethyl)-1H-indol-6-yl)ethyl)-2-methyloxazole-5-carboxamide] | 27.6 nM | –
(S)-2-(1-(cyclopropylmethyl)-6- ((N-(difluoromethyl) methyl)sulfonamido)-1H- pyrrolo[2,3-b]pyridin-2-yl)- N-(4,4-difluoropiperidin- 3-yl)-6-fluoro- 1-methyl-1H-benzo[d] imidazole-5-carboxamide [Example 92] | 617 nM | –
[2H][C@]1(N)CCCN(C(=O)c2cc(OC)c3c(c2)nc(-c2cc4ccc(N(C(F)F)S(C)(=O)=O)nc4n2CC2CC2)n3C)C1 [Example 46, (S)-N-(2-(5-(3-aminopiperidine-1-carbonyl-3-d)-7-methoxy-1-methyl-1H-benzo[d]imidazol-2-yl)-1-(cyclopropylmethyl)-1H-pyrrolo[2,3-b]pyridin-6-yl)-N-(difluoromethyl) methanesulfonamide] | 1160 nM | –
COc1cc(C(=O)N2C[C@H](N)[C@@H]3CC[C@H]2C3)cc2nc(-c3cc4ccc([C@@H](C)NC(=O)c5cnc(C(F)(F)F)nc5)nc4n3CC3CC3)n(C)c12 [Example 314, N-((R)-1-(2-(5-((1S,4R,5R)-4-amino-2-azabicyclo[3.2.1]octane-2-carbonyl)-7-methoxy-1-methyl-1H-benzo[d]imidazol-2-yl)-1-(cyclopropylmethyl)-1H-pyrrolo[2,3-b]pyridin-6-yl)ethyl)-2-(trifluoromethyl)pyrimidine-5-carboxamide] | – | 140 nM
COc1cc(C(=O)N2CCC[C@@H](N)C2)cc2nc(-c3cc4ccc([C@@H](C)N5CCCC5=O)nc4n3CC3CC3)n(C3CC3)c12 [Example 244, 1-((R)-1-(2-(5-((R)-3-aminopiperidine-1-carbonyl)-1-cyclopropyl-7-methoxy-1H-benzo[d]imidazol-2-yl)-1-(cyclopropylmethyl)-1H-pyrrolo[2,3-b]pyridin-6-yl)ethyl)pyrrolidin-2-one] | 49.3 nM | –
COc1cc(C(=O)N2[C@H]3CC[C@@H]2[C@H](N)C3)cc2nc(-c3cc4ccc([C@@H](C)NC(=O)c5ccccc5)cc4n3CC3CC3)n(C)c12 [Example 136, N-((R)-1-(2-(5-((1R,2R,4S)-2-amino-7-azabicyclo[2.2.1]heptane-7-carbonyl)-7-methoxy-1-methyl-1H-benzo[d]imidazol-2-yl)-1-(cyclopropylmethyl)-1H-indol-6-yl)ethyl)benzamide] | 27.6 nM | –
CCN(c1ccc2cc(-c3nc4cc(C(=O)N5CCC[C@@H](N)C5)cc(OC)c4n3C)n(CC3CC3)c2n1)S(=O)(=O)C1CC1 [Example 25, (R)-N-(2-(5-(3-aminopiperidine-1-carbonyl)-7-methoxy-1-methyl-1H-benzo[d]imidazol-2-yl)-1-(cyclopropylmethyl)-1H-pyrrolo [2,3-b]pyridin-6-yl)-N-ethylcyclopropanesulfonamide] | 82 nM | –
COc1cc(C(=O)N2[C@H]3CC[C@@H]2[C@H](N)C3)cc2nc(-c3cc4ccc([C@@H](C)NC(=O)C5CC5(F)F)cc4n3CC3CC3)n(C3CC3)c12 (stereo partly drawn) [Example 152, N-((R)-1-(2-(5-((1R,2R,4S)-2-amino-7-azabicyclo[2.2.1]heptane-7-carbonyl)-1-cyclopropyl-7-methoxy-1H-benzo[d]imidazol-2-yl)-1-(cyclopropylmethyl)-1H-indol-6-yl)ethyl)-2,2-difluorocyclopropane-1-carboxamide] | 63 nM | –
COc1cc(C(=O)N2CCC[C@@H](N)C2)cc2nc(-c3cc4ccc(N5CCCN(C)S5(=O)=O)nc4n3CC3CC3)n(C)c12 [Example 106, (R)-(3-aminopiperidin-1-yl)(2-(1-(cyclopropylmethyl)-6-(6-methyl-1,1-dioxido-1,2,6-thiadiazinan-2-yl)-1H-pyrrolo[2,3-b]pyridin-2-yl)-7-methoxy-1-methyl-1H-benzo[d]imidazol-5-yl)methanone] | 434 nM | –
C[C@@H](NC(=O)c1ccc(C(F)F)nc1)c1ccc2cc(-c3nc4cc(C(=O)N5C[C@H](N)[C@@H]6CC[C@H]5C6)cc(F)c4n3C3CC3)n(CC3CC3)c2n1 [Example 310, N-((R)-1-(2-(5-((1S,4R,5R)-4-amino-2-azabicyclo[3.2.1]octane-2-carbonyl)-1-cyclopropyl-7-fluoro-1H-benzo[d]imidazol-2-yl)-1-(cyclopropylmethyl)-1H-pyrrolo[2,3-b]pyridin-6-yl)ethyl)-6-(difluoromethyl)nicotinamide] | – | 89.7 nM
COc1cc(C(=O)N2CCC[C@@H](N)C2)cc2nc(-c3cc4ccc([C@@H](C)NC(=O)c5ccccc5)nc4n3CC3CC3)n(C)c12 [Example 124, N-((R)-1-(2-(5-((R)-3-aminopiperidine-1-carbonyl)-7-methoxy-1-methyl-1H-benzo[d]imidazol-2-yl)-1-(cyclopropylmethyl)-1H-pyrrolo[2,3-b]pyridin-6-yl)ethyl)benzamide] | 54.6 nM | –
COc1cc(C(=O)N2C[C@H](N)CCN2C)cc2nc(-c3cc4ccc([C@@H](C)NC(=O)c5ncccn5)nc4n3CC3CC3)n(C)c12 [Example 180, N-((R)-1-(2-(5-((R)-5-amino-2-methylhexahydropyridazine-1-carbonyl)-7-methoxy-1-methyl-1H-benzo[d]imidazol-2-yl)-1-(cyclopropylmethyl)-1H-pyrrolo[2,3-b]pyridin-6-yl)ethyl)pyrimidine-2-carboxamide] | 28.8 nM | –
COc1cc(C(=O)N2C[C@H](N)CC[C@@H]2C)cc2nc(-c3cc4ccc(-n5c(C)cccc5=O)nc4n3CC3CC3)n(C)c12 [Example 282, 1-(2-(5-((2S,5R)-5-amino-2-methylpiperidine-1-carbonyl)-7-methoxy-1-methyl-1H-benzo[d]imidazol-2-yl)-1-(cyclopropylmethyl)-1H-pyrrolo[2,3-b]pyridin-6-yl)-6-methylpyridin-2(1H)-one] | 146 nM | –
COc1cc(C(=O)N[C@@H]2CNC[C@H]2NC(=O)/C=C/CN(C)C)cc2nc(-c3cc4ccc(N(C(F)F)S(C)(=O)=O)nc4n3CC3CC3)n(C)c12 (stereo in doubt) [Example 71, 2-[1-(cyclopropylmethyl)-6-[difluoromethyl(methylsulfonyl)amino]pyrrolo[2,3-b]pyridin-2-yl]-N-[(3R,4R)-4-[[(E)-4-(dimethylamino)but-2-enoyl]amino]pyrrolidin-3-yl]-7-methoxy-1-methyl-benzimidazole-5-carboxamide] | 490 nM | –
COc1cc(C(=O)N2[C@H]3CC[C@@H]2[C@H](N)C3)cc2nc(-c3cc4ccc([C@@H](C)NC(C)=O)nc4n3CC3CC3)n(C3CC3)c12 [Example 131, N-((R)-1-(2-(5-((1R,2R,4S)-2-amino-7-azabicyclo[2.2.1]heptane-7-carbonyl)-1-cyclopropyl-7-methoxy-1H-benzo[d]imidazol-2-yl)-1-(cyclopropylmethyl)-1H-pyrrolo[2,3-b]pyridin-6-yl)ethyl)acetamide] | 25.9 nM | –
COc1cc(C(=O)N2CCC[C@@H](N)C2)cc2nc(-c3cc4ccc(N5CCCS5(=O)=O)nc4n3CC3CC3)n(C)c12 [Example 96, (R)-(3-aminopiperidin-1-yl)(2-(1-(cyclopropylmethyl)-6-(1,1-dioxidoisothiazolidin-2-yl)-1H-pyrrolo[2,3-b]pyridin-2-yl)-7-methoxy-1-methyl-1H-benzo[d]imidazol-5-yl) methanone] | 1050 nM | –
COc1cc(C(=O)N2C[C@H](N)CC[C@@H]2C)cc2nc(-c3cc4ccc(-c5cc6cn[nH]c6cc5C)nc4n3CC3CC3)n(C)c12 [Example 256, ((2S,5R)-5-amino-2-methylpiperidin-1-yl)(2-(1-(cyclopropylmethyl)-6-(6-methyl-1H-indazol-5-yl)-1H-pyrrolo[2,3-b]pyridin-2-yl)-7-methoxy-1-methyl-1H-benzo[d]imidazol-5-yl)methanone] | 1330 nM | –
COc1cc(C(=O)N2C[C@H](N)CCN2C)cc2nc(-c3cc4ccc([C@@H](C)NC(=O)C(F)(F)c5ccccc5)nc4n3CC3CC3)n(C)c12 [Example 167, N-((R)-1-(2-(5-((R)-5-amino-2-methylhexahydropyridazine-1-carbonyl)-7-methoxy-1-methyl-1H-benzo[d]imidazol-2-yl)-1-(cyclopropylmethyl)-1H-pyrrolo[2,3-b]pyridin-6-yl)ethyl)-2,2-difluoro-2-phenylacetamide] | 388 nM | –
COc1cc(C(=O)N2C[C@H](N)CC[C@@H]2C)cc2nc(-c3cc4ccc(-c5cccc6c5NC(=O)C6)nc4n3CC3CC3)n(C)c12 [Example 259, 7-(2-(5-((2S,5R)-5-amino-2-methylpiperidine-1-carbonyl)-7-methoxy-1-methyl-1H-benzo[d]imidazol-2-yl)-1-(cyclopropylmethyl)-1H-pyrrolo[2,3-b]pyridin-6-yl)indolin-2-one] | 1830 nM | –
COc1cc(C(=O)N2CC3CCC3(N)C2)cc2nc(-c3cc4ccc(N(C(F)F)S(C)(=O)=O)nc4n3CC3CC3)n(C)c12 (stereo not drawn) [Example 78, N-(2-(5-(1-amino-3-azabicyclo[3.2.0]heptane-3-carbonyl)-7-methoxy-1-methyl-1H-benzo[d]imidazol-2-yl)-1-(cyclopropylmethyl)-1H-pyrrolo[2,3-b]pyridin-6-yl)-N-(difluoromethyl) methanesulfonamide] | 655 nM | –

— patent US11878965B2, “Inhibitors of peptidylarginine deiminases” (Gilead Sciences, Inc., priority 2020, dated 2024)
